The term IC50 denotes the concentration at which inhibition is half-maximal. High values mean lower potency, low ones higher potency. One may read the Papp A→B as the apparent permeability from the apical to the basolateral side of a cell layer. In general, Papp B→A refers to the apparent permeability from the basolateral to the apical side of a cell layer. As a reminder, the efflux ratio is a quotient of directional permeabilities that is used to spot active efflux.

The target in data set [1] is T1, N6-adenosine-methyltransferase catalytic subunit (Homo sapiens, UniProt Q86U44). Description: Inhibition of METTL3 (unknown origin).
The target of data set [2] is T1, N6-adenosine-methyltransferase catalytic subunit. Description: Inhibition of METTL3 (unknown origin) assessed as remaining activity at 500 uM relative to control.
Data set [3] is described as follows: Apparent permeability across apical to basolateral side in human Caco-2 cells. In kind it is ADME, cell-based. A general note: Caco-2 cells form a polarised layer with tight junctions and transporters.
A short description of data set [4]: Apparent permeability across basolateral to apical side in human Caco-2 cells. In kind it is ADME, cell-based.
Data set [5] in a line: Efflux ratio of apparent permeability across basolateral to apical side over apical to basolateral side in human Caco-2 cells. In kind it is ADME, cell-based.

T1 sequence (Q86U44 whole entry): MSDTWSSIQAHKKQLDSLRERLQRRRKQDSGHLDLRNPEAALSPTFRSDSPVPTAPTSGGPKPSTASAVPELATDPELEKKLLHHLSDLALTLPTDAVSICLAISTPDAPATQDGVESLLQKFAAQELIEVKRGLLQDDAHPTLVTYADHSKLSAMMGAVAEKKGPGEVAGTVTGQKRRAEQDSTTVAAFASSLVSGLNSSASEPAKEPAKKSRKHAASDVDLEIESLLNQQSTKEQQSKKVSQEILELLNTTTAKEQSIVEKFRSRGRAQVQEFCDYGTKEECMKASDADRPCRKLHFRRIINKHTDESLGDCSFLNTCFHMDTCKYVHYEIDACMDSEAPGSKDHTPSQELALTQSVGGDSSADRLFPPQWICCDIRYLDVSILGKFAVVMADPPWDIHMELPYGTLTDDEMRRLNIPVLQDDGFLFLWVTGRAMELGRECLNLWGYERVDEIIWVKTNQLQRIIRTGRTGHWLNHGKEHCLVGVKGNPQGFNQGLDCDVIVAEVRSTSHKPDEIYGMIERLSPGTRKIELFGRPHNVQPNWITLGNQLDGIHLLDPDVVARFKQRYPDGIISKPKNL

`Nc1ncnc2c1ncn2[C@@H]1O[C@H](C(=O)NCCCCN2CCCC2)[C@@H](O)[C@H]1O` displayed a 50% inhibitory concentration (IC50) in data set [1] of 8.7 µM.

Regarding `Nc1ncnc2c1ncn2[C@@H]1O[C@H](C(=O)NCCCNC(=O)c2ccccn2)[C@@H](O)[C@H]1O`, the Activity in data set [2] was found to be 38%. Also, in data set [1], 332 µM corresponded to half-maximal inhibition (IC50).

In turn, `Nc1ncnc2c1ncn2[C@@H]1O[C@H](C(=O)NCC2CCNCC2)[C@@H](O)[C@H]1O` came in with an IC50 in data set [1] greater than 250 µM.

For the compound `CNC1CCC(O)(Cn2cnc3c(N)ncnc32)C(O)C1` (configuration not stated), the Activity in data set [2] was 20%. The compound also had an IC50 in data set [1] of 98 µM.

Regarding `CN1CCC(NC(=O)[C@H]2O[C@@H](n3cnc4c(N)ncnc43)[C@H](O)[C@@H]2O)CC1`, the Activity in data set [2] is 18%. In data set [1], this compound returned an IC50 of 65 µM.

In turn, `Nc1ncnc2c1ncn2[C@@H]1O[C@H](CO)[C@@H](O)[C@H]1O` [ADENOSINE] had an IC50 in data set [1] of 495 µM.

On to `CC[C@H]1OC(=O)[C@H](C)[C@@H](O[C@H]2C[C@@](C)(OC)[C@@H](O)[C@H](C)O2)[C@H](C)[C@@H](O[C@@H]2O[C@H](C)C[C@H](N(C)C)[C@H]2O)[C@](C)(O)C[C@@H](C)C(=O)[C@H](C)[C@@H](O)[C@]1(C)O` [ERYTHROMYCIN], for which the Papp in data set [3] was 0.2 10^-6 cm/s; in data set [4], 17.5 10^-6 cm/s. In addition, the Ratio in data set [5] came out at 62.9.

For the compound `Nc1ncnc2c1ncn2C[C@H]1OC[C@@H](N)[C@H](O)[C@@H]1O`, in data set [2], the Activity was 107%. Besides, the IC50 in data set [1] is greater than 250 µM.

As for `COCCc1ccc(OCC(O)CNC(C)C)cc1` (configuration not stated) [METOPROLOL], the Papp A→B in data set [3] was determined as 314 nm/s. Further, the basolateral-to-apical permeability (Papp B→A) in data set [4] was 333 nm/s. The efflux ratio in data set [5] worked out at 1.1.

Source of the values: ChEMBL document CHEMBL5241109, “Roles and drug development of METTL3 (methyltransferase-like 3) in anti-tumor therapy” (Eur J Med Chem, 2022).
